Measurements taken from patent publication US11505556B2, “Halogenated derivatives of morphinans and uses thereof” (Xalud Therapeutics, Inc., priority 2017, dated 2022).

What was measured:
[1] = system: TLR4 (LPS-stimulated NO production, BV-2 mouse microglia cell line); test: NO assay: inhibition of LPS-induced NO production in BV-2 microglia (iNOS cellular); type: cell-based; conditions: for inhibition of NO production from LPS-stimulated BV2 cells: FIGS. 8B to 8D
Excerpt: NO assay: Microglia are the resident cells of the innate immune system in the central nervous system, and TLR4 is primarily expressed by microglia rather than astrocytes or neurons in the CNS. Given this expression profile, the BV-2 mouse microglia cell line was used as the model system of microglia, as these cells recapitulate many of the responses of primary microglia with high fidelity. TLR4 activation induces the downstream production of the inflammatory factor NO, which contributes to the development of neuropathic pain and drug addiction. BV-2 murine microglia were grown in supplemented DMEM (including 10% FBS, 50 unit mL^−1 penicillin, 50 μg·mL^−1 streptomycin). BV-2 cells were detached from the flask by trypsin digestion when ˜80% confluence was reached. Cells were seeded at a density of 4×10^4 cells per well in 96-well plates. After overnight incubation, media was aspirated and changed to DMEM media without FBS. Cells were then treated with LPS (200 ng/ml) and different concentrations of the testing compounds. After 24 h treatment, 100 μL of supernatant media was removed after cells were treated for 24 h and added to flat black 96-well microfluor plates (Thermo Scientific, MA, USA). Subsequently, 10 μL of 2, 3-diaminonaphthalene (0.05 mg·mL^−1 in 0.62 M HCl) was added to each well and incubated for 15 min. The reaction was quenched by addition of 5 μL of 3 M NaOH and the plate was read on a Beckman Coulter DTX880 reader (Fullerton, Calif., USA) with excitation at 360 nm and emission at 430 nm.
N chain NTX: This experimentation involved an in vitro assay where mouse BV2 cells were treated with LPS, which results in the release of nitric oxide (NO). Blockade of TLR4 activity results in reduced NO production. Therefore, IC50 values were determined for test compounds that antagonize TLR4 activity. A series of test compounds were prepared, with different N-alkyl chains replacing the cyclopropyl methyl found in naltrexone. Cell viability was also measured by a standard assay, e.g., measurement of the release of cytoplasm-resident enzymes in the tissue culture supernatant or media to detect cell loss/lysis/rupture. A dose-inhibition curve was generated by testing the TLR4 antagonist compound for the ability to block LPS-stimulated iNOs induction. In FIG. 7, the inhibition levels across a range of doses are graphed, along with a regression curve. The IC50 value—50% inhibition level—is also provided, graphed against the length of the alkyl chain. Note that with longer N-alkyl chain the IC50 was reduced, although cell viability became problematic.
FIGS. 8B to 8D show the results of the inhibition of NO production from LPS-stimulated BV2 cells using the assay described above.

[2] = system: off-target screening panel; test: Off-target inhibition screening (whole panel); conditions: 10 μM test concentration, hit = inhibition at or above the 50% level
Excerpt: In addition to the animal studies presented above in Examples 1-9, the results of in vitro testing of several of the compounds (i.e., XT-203, XT-204, and XT-206 through XT-217) are shown in Table 5 and Table 6. […]. Nine additional compounds had two or fewer off-target hits in the screening. […] These compounds spanned all of the tested N-modification classes. […]. Thus, the medicinal chemistry approach taken in this series of fluorinated compounds can yield low off-target activity and longer metabolic lifetime while preserving TLR4 antagonism. It is appreciated that further development of compounds in this class, using techniques known to those skilled in the art, may yield additional compounds with desirable pharmacologic and toxicologic characteristics.

hind paw incision pain = test: Rat hind paw incision pain model, SC dosing, von Frey testing (Example 2); type: in vivo; conditions: for effect on pain threshold (von Frey), day 1 and day 5 dosing: SC 3x per day for 5 days, XT-203 28 or 30 mg/kg, (+)-NTX data not shown
Experimental: Rats were housed in temperature (23+/−3° C.) and light (12 hour:12 hour, light:dark cycle; lights on at 0700) controlled rooms with standard rodent chow and water available ad libitum.
Von Frey Test for Mechanical Allodynia: Rats received at least three 60 min habituations to the test environment prior to behavioral testing. Response thresholds to calibrated light pressure stimuli applied to the plantar surface of the paws was measured using the von Frey test. […] All testing was conducted blind with respect to group assignment. The behavioral responses were used to calculate the threshold, by fitting a Gaussian integral psychometric function using a maximum-likelihood fitting method, as described in detail previously (Id.). Allodynia was assessed pre- and post-drug delivery.
Behavior testing for pain responses by von Frey testing was used to establish pain thresholds in the affected hind paw. Because dosage was 3×/day, behavior testing was performed after the first and second dose of day 1 dosing (1.1, 1.2) and after the first and second dose of day 5 dosing (5.1, 5.2). Testing sessions were performed 30 minutes after the dose was administered.

[3] = system: CCI neuropathic pain (mechanical allodynia); test: Rat CCI model, oral and subcutaneous phases (Study R042); type: in vivo
Experimental: Rat chronic constriction injury model-Oral and subcutaneous (+)-NTX and XT-203: An efficacy study was conducted in the rat chronic constriction injury (CCI) model (Study R042). The study design comprised two phases. A five-day period of oral (PO) dosing and behavioral testing was followed by a five-day period of subcutaneous (SC) dosing, with a two-day washout period between these periods. Dosing on each day was performed three times a day (TID). Behavioral testing for mechanical allodynia was performed on the first and fifth days of dosing, at three times on those days: before the first dose of the day, 30 minutes after the first dose of the day, and 30 minutes after the second dose of the day. Thus, day 5 testing is designated as pre5.1 (before the first dose of the day), 5.1 (fifth day, after first dose) or 5.2 (fifth day, after second dose). On day 5 of the subcutaneous dosing phase, a second testing period was introduced 60 minutes after the second dose. (+)-NTX (6, 18, and 60 mg/kg) and XT-203. Mechanical allodynia was tested manually, using the Chaplan up-down testing method. The results are shown in FIGS. 10A and 10B, with the oral (PO) phase presented as the first pair of graphs. After the two-day washout, the subcutaneous (SC) phase was carried out with the results shown in the graphs at FIGS. 10C and 10D.
The CCI model was well established in this study, with allodynic response thresholds between 2 and 3 grams (presurgical baseline thresholds at 15 g, not shown). […] This is especially remarkable given the extremely rapid metabolism and pharmacokinetics of (+)-NTX (see FIG. 9). Here, the dampening of efficacy due to lack of significant amounts of parent compound is particularly evident. Thus, the appropriate dose-ranging conditions in animal models should reflect (+)-NTX serum levels during efficacy testing, to match pharmacokinetics with pharmacodynamics. […] Efficacy is only observed after the first dose on day 5. Thus, changes designed to improve compound stability do provide improved efficacy.

[4] = system: bone fracture pain, paw withdrawal threshold; test: Mouse bone fracture model, intraperitoneal; type: in vivo; conditions: for effect on PWT in mouse fracture pain model: IP, morphine 1, 2, 3, 5 mg/kg, XT-203 6, 10, 18, 30 mg/kg, (+)-NTX 6, 18, 30, 60 mg/kg, dose-dependent; for adverse effects during observation: mouse fracture model, all dose groups
Excerpt: Each group had n=10 mice.

| Structure (SMILES) | inhibition of NO production from LPS-stimulated BV2 cells [1] | IC50 ([1]; LPS (200 ng/ml), 24 h, BV-2 cells, Table 3) [µM] | IC50 ([1]; Table 6, unit inferred, footnote: Indicator of TL4 antagonism) [µM] | off-target hits in the screening [2] | off-target hits in the screening ([2]; listed as XT-202) | effect on pain threshold (von Frey), day 1 and day 5 dosing (hind paw incision pain) | efficacy on mechanical allodynia, medium and high doses ([3]; (+)-NTX 18 and 60 mg/kg TID, PO d1, SC d1, SC d5 panels) | effect on PWT in mouse fracture pain model [4] | adverse effects during observation [4] | IC50 ([1]; Mus musculus, Microglia, Table 6, unit inferred, footnote: Indicator of TL4 antagonism) [µM] | IC50 ([1]; Mus musculus, LPS (200 ng/ml), 24 h, BV-2 cells, Table 3) [µM] | effect during day 5 testing compared with morphine 3 mg/kg (hind paw incision pain; XT-203 28 or 30 mg/kg SC 3x per day) | reversal of allodynia at pre5.1 (before first dose of day 5) ([3]; XT-203 18 mg/kg SC TID) | efficacy on mechanical allodynia, subcutaneous, day 5 ([3]; XT-203 18 mg/kg SC TID, after the first dose on day 5) |
| --- | --- | --- | --- | --- | --- | --- | --- | --- | --- | --- | --- | --- | --- | --- |
| O=C1CC[C@]2(O)[C@@H]3Cc4ccc(O)c5c4[C@]2(CCN3CC2CC2)[C@@H]1O5 [(+)-naltrexone, reference compound] | good viability and inhibition | 50 to 60 | 50 to 60 | none | NONE | not effective | some efficacy | increased the PWT | No significant adverse effects |  |  |  |  |  |
| COc1ccc2c3c1O[C@@H]1C(F)CCC4[C@H](C2)N(CC2CC2)CC[C@]341 (stereo partly shown) [XT-203] | good viability and inhibition |  |  | activity at two targets |  | substantial effects |  | increased the PWT | No significant adverse effects | 30 | 30 to 50 | matching the response to morphine | does not show reversal of allodynia | some significant efficacy |
